Source: US4771071A, “Antihypercholesterolemic compounds” (Merck & Co., Inc., priority 1986, dated 1988)

Legend:
[1] = test system: HMG-CoA reductase; experiment: HMG-CoA reductase inhibition assay (in vitro); format: biochemical; settings: IC50 compared with compactin determined simultaneously, compactin assigned 100; tested as sodium salt of dihydroxy acid form; solubilized rat liver microsomal enzyme
Procedure: The intrinsic HMG-CoA reductase inhibition activityof the claimed compounds is measured in the in vitro protocol published in J. Med. Chem., 28, p. 347-358 (1985) and described below:
Male Holtzman Sprague-Dawley rats (225-250 g) were kept on reversed lighting and fed Purina rat chow containing 3% cholestyramine for 7 days preceding their sacrifice by CO2 asphyxiation. Livers were removed 6 hours into the dark cycle and used immediately to prepare microsomes. […]
Test compounds or compactin (after first being converted to the sodium salt of their dihydroxy acid form in situ by addition of 1N NaOH (1 equivalent) were added to the assay system in 10-μL volumes at multiconcentration levels. After a 40-minutes incubation at 37° C. with shaking and exposure to air, the reaction was stopped by the addition of 0.4 mL of 8N HCl. After an additional 30-minute incubation at 37° C. to ensure the complete lactonization of mevalonic acid to mevalonolactone, 0.2 ml of the mixture was added to an 0.5×5.0 cm column containing 100-200 mesh BioRex 5, chloride form (Bio-Rad), wetted with distilled water, as described by Alberts et al., [J. Proc. Natl. Acad. Sci. U.S.A., 1980, 77, 3957]. […] Five milliliters of Aquasol-2 (New England Nuclear) was added to each vial, and radioactivity was measured in a Packard Tri Carb Prias scintillation counter. […]

[2] = Stability of free hydroxy acid on standing; format: physicochemical
Procedure: The sodium salt of the compound II from Example 11 is redissolved in 2 ml of ethanol-water (1:1) and added to 10 ml of 1N hydrochloric acid from which the hydroxy acid is extracted with ethyl acetate. The latter solvent is washed once with water, dried, and removed in vacuo with a bath temperature not exceeding 30° C.

Compound	Relative Potency [1]	stability of hydroxy acid (reversion to lactone) [2]
6(R)-[2-[8(S)-(2,2-Dimethyl-3-methoxycarbonylpropionyloxy)-2(S),6(R)-dimethyl-1,2,6,7,8,8a-(R)-hexahydronaphthyl-1(S)]ethyl]-4(R)-hydroxy-3,4,5,6-tetrahydro-2H-pyran-2-one [Example 2]	59	–
6(R)-[2-[8(S)-(2,2-dimethyl-3-methoxy-3-oxopropionyloxy)-2(S),6(R)-dimethyl-1,2,6,7,8,8a(R)-hexahydronaphthyl-1(S)]ethyl]-4(R)-hydroxy-3,4,5,6-tetrahydro-2H-pyran-2-one [Example 1]	87	–
COC(=O)C(C)(C)C(=O)O[C@H]1C[C@@H](C)C=C2C=C[C@H](C)[C@H](CC[C@@H](O)C[C@@H](O)CC(=O)O)[C@H]21 [Example 13]	–	slowly reverts to the lactone on standing
